The values that follow come from patent US9988400B2 (Genentech, Inc., priority 2013, dated 2018).

For this test, the target named is T1, HEK cells stably transfected with tetracycline inducible hNR1 and hNR2A (Homo sapiens, UniProt Q05586+Q12879).
T1 construct: expressed in transfected cells; host or cells: HEK cells, stably transfected, tetracycline/doxycycline inducible
Nature of the test: Assay 1: Cell-Based Assay, cytosolic calcium response to positive allosteric modulators (with 30 μM glycine and 300 nM L-glutamate, EC30). The settings on record: for EC50: cytosolic calcium response, with 30 μM glycine and 300 nM L-glutamate (EC30), — = no plateau was reached; for Max %: responses scaled relative to 100 μM L-glutamate maximal response (100%) and 0 μM L-glutamate (0%). The gist of the method:
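Cells induced 24 h with 7.5 μg mL^−1 doxycycline plus 500 μM (+)-ketamine, loaded 60 min at 37 °C with calcium dye in Mg-free HBSS (1.8 mM Ca, probenecid, 10 μM (+)-ketamine, pH 7.15). Peak RFU over 5 min after compound addition, scaled to 100 μM L-glutamate (100%) and 0 μM (0%); four-parameter Hill fit for EC50, max % if no plateau.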

Molecules are shown by their SMILES.

T1 sequence (Q12879 23-1464, other chains not shown): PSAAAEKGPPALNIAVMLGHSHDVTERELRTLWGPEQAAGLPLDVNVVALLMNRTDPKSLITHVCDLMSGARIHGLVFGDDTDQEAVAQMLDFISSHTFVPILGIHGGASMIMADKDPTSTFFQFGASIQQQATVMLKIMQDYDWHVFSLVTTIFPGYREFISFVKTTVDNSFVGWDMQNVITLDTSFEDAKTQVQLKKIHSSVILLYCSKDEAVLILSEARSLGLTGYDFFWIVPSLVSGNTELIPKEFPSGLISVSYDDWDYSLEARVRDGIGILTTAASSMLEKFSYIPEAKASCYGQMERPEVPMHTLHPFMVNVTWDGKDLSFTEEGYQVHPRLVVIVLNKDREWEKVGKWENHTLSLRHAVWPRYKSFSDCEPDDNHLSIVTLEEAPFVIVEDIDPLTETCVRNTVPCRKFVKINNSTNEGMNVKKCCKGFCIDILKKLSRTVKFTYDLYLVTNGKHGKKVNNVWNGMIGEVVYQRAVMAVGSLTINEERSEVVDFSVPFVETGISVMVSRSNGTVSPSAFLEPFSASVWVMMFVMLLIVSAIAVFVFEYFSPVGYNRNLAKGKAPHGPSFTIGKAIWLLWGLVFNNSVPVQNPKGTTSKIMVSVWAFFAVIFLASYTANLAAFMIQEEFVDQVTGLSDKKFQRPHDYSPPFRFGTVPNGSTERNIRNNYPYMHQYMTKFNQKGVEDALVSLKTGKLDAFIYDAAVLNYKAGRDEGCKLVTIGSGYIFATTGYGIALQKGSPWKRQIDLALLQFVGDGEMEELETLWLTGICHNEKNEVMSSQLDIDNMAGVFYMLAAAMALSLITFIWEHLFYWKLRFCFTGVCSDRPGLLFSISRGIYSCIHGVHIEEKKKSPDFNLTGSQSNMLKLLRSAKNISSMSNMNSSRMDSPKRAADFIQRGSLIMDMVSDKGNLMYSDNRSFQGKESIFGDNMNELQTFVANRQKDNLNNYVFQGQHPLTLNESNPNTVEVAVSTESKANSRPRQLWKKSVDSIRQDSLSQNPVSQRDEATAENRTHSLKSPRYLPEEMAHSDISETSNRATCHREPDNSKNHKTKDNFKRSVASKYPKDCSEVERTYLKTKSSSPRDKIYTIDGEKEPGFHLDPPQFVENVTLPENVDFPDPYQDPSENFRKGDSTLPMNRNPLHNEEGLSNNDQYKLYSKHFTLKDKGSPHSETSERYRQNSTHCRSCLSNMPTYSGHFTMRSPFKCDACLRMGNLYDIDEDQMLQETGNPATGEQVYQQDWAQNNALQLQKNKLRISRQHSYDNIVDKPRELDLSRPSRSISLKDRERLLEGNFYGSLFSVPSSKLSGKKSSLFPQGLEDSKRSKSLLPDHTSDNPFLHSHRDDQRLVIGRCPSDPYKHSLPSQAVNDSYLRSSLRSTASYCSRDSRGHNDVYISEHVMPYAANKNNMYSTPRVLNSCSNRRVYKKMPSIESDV

For the compound `Cc1sc2nc(Cn3nc(Cl)cc3C(F)(F)F)cc(=O)n2c1C(C)C#N` (centres unmarked) [compound 252, 2-[7-[[3-chloro-5-(trifluoromethyl)pyrazol-1-yl]methyl]-2-methyl-5-oxo-thiazolo[3,2-a]pyrimidin-3-yl]propanenitrile], the EC50 (Table 3) stood at 5.76 µM.

`Cc1sc2nc(Cc3cccc(C#N)c3)cc(=O)n2c1C1CC1C#N` (centres unmarked) [Example 23.1, 3-((3-(2-cyanocyclopropyl)-2-methyl-5-oxo-5H-thiazolo[3,2-a]pyrimidin-7-yl)methyl)benzonitrile]: the EC50 (Table 2) was determined as 18.1 µM. On to `Cc1sc2nc(CN(CC(F)F)c3ccc(F)cc3)cc(=O)n2c1-c1cncnc1` [Example 5.6, 7-(((2,2-difluoroethyl)(4-fluorophenyl)amino)methyl)-2-methyl-3-(pyrimidin-5-yl)-5H-thiazolo[3,2-a] pyrimidin-5-one], for which, under “Table 2”, the EC50 was determined as 0.766 µM and the Max % turned out to be 164%. In the case of `O=c1cc(Cn2nc(C(F)(F)F)cc2Cl)nc2sc(C(F)(F)F)c([C@@H]3C[C@H]3CO)n12` (single isomer, unassigned) [compound 269], the EC50 (Table 3) amounted to 0.0831 µM. The same measure, in the same setting: the value for `CCNC(=O)c1c(C#N)sc2nc(Cc3cccc(C(F)(F)F)c3F)cc(=O)n12` [compound 105, 2-Cyano-N-ethyl-7-[[2-fluoro-3-(trifluoromethyl)phenyl]methyl]-5-oxo-thiazolo[3,2-a]pyrimidine-3-carboxamide] was 3.9 µM. Consider `CCNC(=O)c1c(C)sc2nc(Cc3cc(F)ccc3F)cc(=O)n12` [Example 21.42, 7-(2,5-difluorobenzyl)-N-ethyl-2-methyl-5-oxo-5H-thiazolo[3,2-a]pyrimidine-3-carboxamide], for which the Max % (Table 2) came to 54.5%.

On to `CCNC(=O)c1c(C)sc2nc(Cc3cc(C#N)ccc3F)cc(=O)n12` [Example 21.31, 7-(5-cyano-2-fluorobenzyl)-N-ethyl-2-methyl-5-oxo-5H-thiazolo[3,2-a]pyrimidine-3-carboxamide], for which the Max % (Table 2) is 88.8%. As for `CCN(Cc1cc(=O)n2c(-c3cncnc3)c(C)sc2n1)c1ccc(F)cc1` [Example 5.1, 7-[(N-ethyl-4-fluoro-anilino)methyl]-2-methyl-3-pyrimidin-5-yl-thiazolo[3,2-a]pyrimidin-5-one], under “Table 2”, the half-maximal effective concentration (EC50) was 0.56 µM and the Max % is listed as 145.1%.

Consider `Cc1sc2nc(CN3c4ccc(F)cc4CC3C)cc(=O)n2c1-c1ccco1` (centres unmarked) [Example 5.46, 7-((5-fluoro-2-methylindolin-1-yl)methyl)-3-(furan-2-yl)-2-methyl-5H-thiazolo[3,2-a]pyrimidin-5-one], for which, where the note is “Table 2”, the EC50 was found to be 3.8 µM and the Max % worked out at 155%.

In the case of `CCN(Cc1cc(=O)n2c(-c3cncc(C(F)(F)F)c3)c(C)sc2n1)c1ccc(F)cc1` [Example 5.36, 7-[(N-ethyl-4-fluoro-anilino)methyl]-2-methyl-3-[5-(trifluoromethyl)-3-pyridyl]thiazolo[3,2-a]pyrimidin-5-one], the Max % (Table 2) is listed as 61.3%. Regarding `CCN(Cc1cc(=O)n2c(Cn3cccn3)c(C)sc2n1)c1ccc(F)cc1` [Example 10.14, 7-[[Ethyl(4-fluorophenyl)amino]methyl]-2-methyl-3-(1H-pyrazol-1-ylmethyl)-5H-[1,3]thiazolo[3,2-a]pyrimidin-5-one], where the note is “Table 2”, the EC50 amounted to 1.5 µM and the Max % stood at 172%. Take `Cc1sc2nc(Cn3nc(C(F)(F)F)cc3Cl)cc(=O)n2c1-c1cccnc1` [compound 134, 7-[[5-chloro-3-(trifluoromethyl)pyrazol-1-yl]methyl]-2-methyl-3-(3-pyridyl)thiazolo[3,2-a]pyrimidin-5-one]: for the setting “Table 3”, the concentration for a half-maximal effect (EC50) came out at 0.501 µM. As to `CCNC(=O)c1c(C)sc2nc(Cc3cccc(Cl)c3F)cc(=O)n12` [Example 21.3, 7-(3-chloro-2-fluorobenzyl)-N-ethyl-2-methyl-5-oxo-5H-thiazolo[3,2-a]pyrimidine-3-carboxamide], where the note is “Table 2”, the concentration for a half-maximal effect (EC50) stood at 7.6 µM and the Max % stood at 131%. For `N#CC1CC1c1c(C(F)(F)F)sc2nc(Cn3nc(C(F)(F)F)cc3Cl)c(F)c(=O)n12` (single isomer, unassigned) [compound 276], the concentration for a half-maximal effect (EC50) (Table 3) was found to be 0.0364 µM.

Regarding `CCN(Cc1cc(=O)n2c3c(sc2n1)CCC3CO)c1ccc(F)cc1` (single isomer, unassigned) [Example 8.4, 6-[(N-ethyl-4-fluoro-anilino)methyl]-1-(hydroxymethyl)-2,3-dihydro-1H-cyclopenta[3,4]thiazolo[1,4-a]pyrimidin-8-one], where the note is “Table 2”, the half-maximal effective concentration (EC50) was found to be 0.569 µM and the Max % stood at 164%. In the case of `Cc1sc2nc(Cn3nc(C4CC4)cc3C(F)(F)F)cc(=O)n2c1-c1cncnc1` [Example 15.28, 7-((3-cyclopropyl-5-(trifluoromethyl)-1H-pyrazol-1-yl)methyl)-2-methyl-3-(pyrimidin-5-yl)-5H-thiazolo[3,2-a]pyrimidin-5-one], the Max % (Table 2) amounted to 80.8%. With `CCNC(=O)c1c(C(F)(F)F)sc2nc(Cc3cccc(C#N)c3F)cc(=O)n12` [compound 41, 7-[(3-cyano-2-fluoro-phenyl)methyl]-N-ethyl-5-oxo-2-(trifluoromethyl)thiazolo[3,2-a]pyrimidine-3-carboxamide], for the setting “Table 3”, the EC50 turned out to be 4.78 µM. Take `CCNC(=O)c1c(C)sc2nc(Cc3cccc(C#N)c3)cc(=O)n12` [Example 21.8, 7-(3-cyanobenzyl)-N-ethyl-2-methyl-5-oxo-5H-thiazolo[3,2-a]pyrimidine-3-carboxamide]: where the note is “Table 2”, the Max % was found to be 99.3%. Regarding `COCc1c(C)sc2nc(Cn3nc(C(F)(F)F)cc3Cl)cc(=O)n12` [compound 183, 7-[[5-chloro-3-(trifluoromethyl)pyrazol-1-yl]methyl]-3-(methoxymethyl)-2-methyl-thiazolo[3,2-a]pyrimidin-5-one], the EC50 (Table 3) was determined as 5.29 µM. Turning to `CCNC(=O)c1c(C)sc2nc(Cc3cc(C#N)ccc3C3CC3)cc(=O)n12` [Example 21.66, 7-(5-cyano-2-cyclopropylbenzyl)-N-ethyl-2-methyl-5-oxo-5H-thiazolo[3,2-a]pyrimidine-3-carboxamide], the Max % (Table 2) worked out at 92.4%. Consider `CCN(Cc1cc(=O)n2c(Cl)csc2n1)c1ccc(F)cc1` [Example 11.5, 3-chloro-7-[(N-ethyl-4-fluoro-anilino)methyl]thiazolo[3,2-a]pyrimidin-5-one], for which, for the setting “Table 2”, the concentration for a half-maximal effect (EC50) stood at 4.6 µM and the Max % was found to be 167%.

For `CCNC(=O)c1c(OCC)sc2nc(Cc3cccc(C(F)(F)F)c3F)cc(=O)n12` [compound 156, 2-ethoxy-N-ethyl-7-[[2-fluoro-3-(trifluoromethyl)phenyl]methyl]-5-oxo-thiazolo[3,2-a]pyrimidine-3-carboxamide], for the setting “Table 3”, the concentration giving a half-maximal response (EC50) turned out to be 1.47 µM.

`O=c1cc(COc2ccc(F)cc2)nc2scc([C@@H]3C[C@H]3CO)n12` (relative stereo) [Example 4.14, 7-((4-fluorophenoxy)methyl)-3-(trans-2-(hydroxymethyl)cyclopropyl)-5H-thiazolo[3,2-a]pyrimidin-5-one]: where the note is “Table 2”, the EC50 is 7.8 µM and the Max % is listed as 93%. For `CCN(Cc1cc(=O)n2c(-c3ccsc3)c(C)sc2n1)c1ccc(F)cc1` [Example 5.47, 7-((ethyl(4-fluorophenyl)amino)methyl)-2-methyl-3-(thiophen-3-yl)-5H-thiazolo[3,2-a]pyrimidin-5-one], where the note is “Table 2”, the 50% effective concentration (EC50) is 0.976 µM and the Max % was found to be 151%. For `CCN(Cc1cc(=O)n2c(C(=O)NC)c(C)sc2n1)c1ccc(F)cc1` [Example 10.4, 7-[(N-ethyl-4-fluoro-anilino)methyl]-N,2-dimethyl-5-oxo-thiazolo[3,2-a]pyrimidine-3-carboxamide], for the setting “Table 2”, the EC50 came out at 0.593 µM and the Max % is listed as 186%. The like results for `Cc1sc2nc(COc3ccc(F)cc3)cc(=O)n2c1-c1ccn[nH]1` [Example 4.15, 7-((4-fluorophenoxy)methyl)-2-methyl-3-(1H-pyrazol-5-yl)-5H-thiazolo[3,2-a]pyrimidin-5-one] were, in that order, 13.9 µM and 50%.

As for `Cc1sc2nc(COc3ccc(F)cc3)cc(=O)n2c1C(N)=O` [Example 1.8, 7-((4-fluorophenoxy)methyl)-2-methyl-5-oxo-5H-thiazolo[3,2-a]pyrimidine-3-carboxamide], for the setting “Table 2”, the concentration giving a half-maximal response (EC50) is 26.3 µM and the Max % was 47.4%.

In the case of `CNC(=O)c1c(C(F)(F)F)sc2nc(Cn3nc(Cl)cc3C(F)(F)F)cc(=O)n12` [compound 56, 7-[[3-chloro-5-(trifluoromethyl)pyrazol-1-yl]methyl]-N-methyl-5-oxo-2-(trifluoromethyl)thiazolo[3,2-a]pyrimidine-3-carboxamide], the EC50 (Table 3) was determined as 2.27 µM. For `CCNC(=O)c1c(C2CC2)sc2nc(COc3ccc(F)cc3)cc(=O)n12` [Example 3.1, 2-cyclopropyl-N-ethyl-7-((4-fluorophenoxy)methyl)-5-oxo-5H-thiazolo[3,2-a]pyrimidine-3-carboxamide], under “Table 2”, the EC50 is 41 µM and the Max % is on record as 56.2%.

`Cc1sc2nc(CN(CCF)c3ccc(F)cc3)cc(=O)n2c1C1CC1CO` (single isomer, unassigned) [Example 5.42, 7-[[4-fluoro-N-(2-fluoroethyl)anilino]methyl]-3-trans-2-(hydroxymethyl)cyclopropyl]-2-methyl-thiazolo[3,2-a]pyrimidin-5-one]: under “Table 2”, the concentration for a half-maximal effect (EC50) was determined as 0.0329 µM and the Max % is listed as 162%. The like results for `Cc1sc2nc(Cc3cccc(C(F)(F)F)c3)cc(=O)n2c1[C@@H]1C[C@H]1CO` (relative stereo) [Example 20.5, 3-(trans-2-(hydroxymethyl)cyclopropyl)-2-methyl-7-(3-(trifluoromethyl)benzyl)-5H-thiazolo[3,2-a]pyrimidin-5-one] were, in that order, 24 µM and 124%. As for `O=c1cc(Cn2nc(C(F)(F)F)cc2C2CC2)nc2sc3c(n12)C(CO)CC3` (centres unmarked) [compound 95], for the setting “Table 3”, the concentration giving a half-maximal response (EC50) amounted to 9.2 µM.

What is called EC50 is the midpoint of the concentration-response curve.
